Measurements: patent publication US12331022B2, “Spiropiperidine allosteric modulators of nicotinic acetylcholine receptors” (Merck Sharp & Dohme LLC, priority 2019, dated 2025)
Like-named read-outs stand apart in the source and are kept apart here.

Biological target: T1, human α7 nAChR (Homo sapiens, UniProt P36544)
T1 construct: host or cells: HEK
Test: Automated patch-clamp electrophysiology functional assay (Assay A)
Format: cell-based
Details: HEK cell line stably expressing human RIC-3 and human α7, IonFlux HT whole-cell population patch, with or without 40 μM acetylcholine
Outline: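 Whole-cell population patch clamp at −60 mV, room temperature, on HEK cells stably co-expressing human α7 and RIC-3; compounds tested at three ascending concentrations per recording, alone (agonism) or with 40 μM acetylcholine (potentiation). Currents normalised to an initial 1 s 40 μM acetylcholine response; EC50 from concentration series.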

T1 sequence (P36544 23-502): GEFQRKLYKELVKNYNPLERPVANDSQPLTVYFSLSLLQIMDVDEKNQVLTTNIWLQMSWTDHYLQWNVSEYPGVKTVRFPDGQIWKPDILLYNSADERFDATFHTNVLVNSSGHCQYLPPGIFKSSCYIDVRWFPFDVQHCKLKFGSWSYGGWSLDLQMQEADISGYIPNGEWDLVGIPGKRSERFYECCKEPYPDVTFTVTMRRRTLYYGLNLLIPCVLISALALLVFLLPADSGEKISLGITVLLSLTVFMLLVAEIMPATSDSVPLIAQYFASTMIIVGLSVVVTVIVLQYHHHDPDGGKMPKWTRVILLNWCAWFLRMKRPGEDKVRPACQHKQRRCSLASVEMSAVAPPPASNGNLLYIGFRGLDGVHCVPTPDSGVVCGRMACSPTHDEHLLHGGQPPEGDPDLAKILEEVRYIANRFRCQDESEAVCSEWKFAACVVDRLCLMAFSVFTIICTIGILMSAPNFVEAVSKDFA

SMILES	EC50 (read-out: α7 nAChR EC50) [nM]	EC50 (read-out: α7 nAChR Potency) [nM]
NS(=O)(=O)N1CCC2(CC1)C(CSc1nnnn1-c1ccccc1)C2(F)F (single isomer, unassigned) [Example A61, 1,1-difluoro-2-{[(1-phenyl-1H-tetrazol-5-yl)sulfanyl]methyl}-6-azaspiro[2.5]octane-6-sulfonamide]	1300	500 to 5000
NS(=O)(=O)N1CCC2(CC1)C[C@H]2COc1cccnc1OCC(F)(F)F [Example 8, (1R)-1-({[2-(2,2,2-Trifluoroethoxy)pyridin-3-yl]oxy}methyl)-6-azaspiro[2.5]octane-6-sulfonamide]	1200	500 to 5000
CC(F)(F)c1cccc(OC[C@@H]2CC23CCN(S(N)(=O)=O)CC3)n1 [Example A56, (1R)-1-({[6-(1,1-difluoroethyl)pyridin-2-yl]oxy}methyl)-6-azaspiro[2.5]octane-6-sulfonamide]	740	500 to 5000
NS(=O)(=O)N1CCC2(CC1)CC2COc1ccc(F)cc1C(F)(F)F (single isomer, unassigned) [Example A7, 1-{[4-fluoro-2-(trifluoromethyl)phenoxy]methyl}-6-azaspiro[2.5]octane-6-sulfonamide]	1200	500 to 5000
NS(=O)(=O)N1CCC2(CC1)C(COc1ccnc(OC(F)F)c1)C2(F)F (single isomer, unassigned) [Example 3, 2-({[2-(Difluoromethoxy)pyridin-4-yl]oxy}methyl)-1,1-difluoro-6-azaspiro[2.5]octane-6-sulfonamide]	930	500 to 5000
NS(=O)(=O)N1CCC2(CC1)C[C@H]2COc1cccc(-c2ccncc2)n1 [Example A58, (1R)-1-[(2,4′-bipyridin-6-yloxy)methyl]-6-azaspiro[2.5]octane-6-sulfonamide]	–	500 to 5000
N#Cc1cccc(OC[C@@H]2CC23CCN(S(N)(=O)=O)CC3)n1 [Example A47, (1R)-1-{[(6-cyanopyridin-2-yl)oxy]methyl}-6-azaspiro[2.5]octane-6-sulfonamide]	1100	500 to 5000

The remaining lines, values ahead:

EC50 (read-out: α7 nAChR EC50) [nM]	EC50 (read-out: α7 nAChR Potency) [nM]	SMILES
3100	500 to 5000	NS(=O)(=O)N1CCC2(CC2COc2noc(-c3ccccc3)n2)C(F)(F)C1 (racemic) [Example A22, 4,4-difluoro-1-{[(5-phenyl-1,2,4-oxadiazol-3-yl)oxy]methyl}-6-azaspiro[2.5]octane-6-sulfonamide]
1400	500 to 5000	NS(=O)(=O)N1CCC2(CC1)CC2CSc1ccc(C(F)(F)F)cc1 (racemic) [Example A43, 1-({[4-(trifluoromethyl)phenyl]sulfanyl}methyl)-6-azaspiro[2.5]octane-6-sulfonamide]
200	100 to 500	COc1ccc(Cl)cc1NC(=O)[C@@H]1CC12CCN(S(N)(=O)=O)CC2 [Example 13, (1R)—N-(5-Chloro-2-methoxyphenyl)-6-sulfamoyl-6-azaspiro[2.5]octane-1-carboxamide]
450	100 to 500	CCOc1cccc(OC[C@@H]2CC23CCN(S(N)(=O)=O)CC3)n1 [Example A54, (1R)-1-{[(6-ethoxypyridin-2-yl)oxy]methyl}-6-azaspiro[2.5]octane-6-sulfonamide]
190	100 to 500	Cc1cc(C)n(-c2cccc(OC[C@@H]3CC34CCN(S(N)(=O)=O)CC4)n2)n1 [Example A19, (1R)-1-({[6-(3,5-dimethyl-1H-pyrazol-1-yl)pyridin-2-yl]oxy}methyl)-6-azaspiro[2.5]octane-6-sulfonamide]
52	≤ 100	COc1ccc(Cl)cc1SC[C@@H]1CC12CCN(S(N)(=O)=O)CC2 [Example 11, (1R)-1-{[(5-Chloro-2-methoxyphenyl)sulfanyl]methyl}-6-azaspiro[2.5]octane-6-sulfonamide]
310	100 to 500	NS(=O)(=O)N1CCC2(CC2COc2cccc(OCC(F)(F)F)n2)C(F)(F)C1 (racemic) [Example A39, 4,4-difluoro-1-({[6-(2,2,2-trifluoroethoxy)pyridin-2-yl]oxy}methyl)-6-azaspiro[2.5]octane-6-sulfonamide]
